Measured values as given in patent publication US10005767B2, “Compositions and methods for inhibition of the JAK pathway” (Rigel Pharmaceuticals, Inc., priority 2009, dated 2018).
Counter-ions that a name gives are not always drawn.

Tested on: human primary T-cells, IL-2 stimulated proliferation (JAK-1 and JAK-3 dependent; reported as JAK3 activity)
Experiment: Human primary T-cell proliferation stimulated by IL-2 (Example 3)
Assay type: cell-based
Details: Homo sapiens, T-cell, tested under conditions described in Example 3 (IL-2 stimulated human primary T-cell proliferation); read-out: ability to inhibit JAK3 activity, IC50 range (Table V)
Summary of the method: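 Peripheral-blood human T-cells pre-activated via TCR/CD28, IL-2-starved overnight, then cultured 72 h at 37 °C with compound in Yssel's medium containing IL-2 (80 U/mL in cell suspension). Proliferation read as viable-cell ATP by CellTiter-Glo luminescence; reduction versus control taken as JAK pathway inhibition.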

Row | SMILES | IC50 [µM]
1 | Cc1cnc(Nc2ccc(OC(F)(F)F)c(N3CCOCC3)c2)nc1Nc1ccc2oc(=O)[nH]c2c1 [Compound I-124, N4-(benzo[d]oxazolin-2(3H)-one-5-yl)-5-methyl-N2-[3-(morpholin-4-yl)-4-trifluoromethoxyphenyl]-2,4-pyrimidinediamine] | < 0.5
2 | COC(=O)c1ccc(Nc2ncc(C)c(Nc3ccc4oc(=O)[nH]c4c3)n2)cc1 [Compound I-125, 4-[5-Methyl-4-(2-oxo-2,3-dihydro-benzooxazol-5-ylamino)-pyrimidin-2-ylamino]-benzoic acid methyl ester] | < 0.5
3 | Cc1cnc(Nc2ccc(C(=O)O)cc2)nc1Nc1ccc2oc(=O)[nH]c2c1 [Compound I-126, 4-[5-Methyl-4-(2-oxo-2,3-dihydro-benzooxazol-5-ylamino)-pyrimidin-2-ylamino]-benzoic acid] | < 0.5
4 | CCN(CC)CCNC(=O)c1ccc(Nc2ncc(C)c(Nc3ccc4oc(=O)[nH]c4c3)n2)cc1 [Compound I-127, N-(2-Diethylamino-ethyl)-4-[5-methyl-4-(2-oxo-2,3-dihydro-benzooxazol-5-ylamino)-pyrimidin-2-ylamino]-benzamide] | < 0.5
5 | CCN(CC)C1CCN(C(=O)c2ccc(Nc3ncc(C)c(Nc4ccc5oc(=O)[nH]c5c4)n3)cc2)C1 (centres unmarked) [Compound I-128, 5-{2-[4-(3-Diethylamino-pyrrolidine-1-carbonyl)-phenylamino]-5-methyl-pyrimidin-4-ylamino}-3H-benzooxazol-2-one] | < 0.5
6 | CC(=O)c1ccc(Nc2ncc(C)c(Nc3ccc4oc(=O)[nH]c4c3)n2)cc1 [Compound I-129, 5-[2-(4-Acetyl-phenylamino)-5-methyl-pyrimidin-4-ylamino]-3H-benzooxazol-2-one] | < 0.5
7 | CC(=O)c1cccc(Nc2ncc(C)c(Nc3ccc4oc(=O)[nH]c4c3)n2)c1 [Compound I-130, 5-[2-(3-Acetyl-phenylamino)-5-methyl-pyrimidin-4-ylamino]-3H-benzooxazol-2-one] | < 0.5
8 | Cc1ccc(Nc2ncc(C)c(Nc3ccc4oc(=O)[nH]c4c3)n2)cc1C#N [Compound I-131, 2-Methyl-5-[5-methyl-4-(2-oxo-2,3-dihydro-benzooxazol-5-ylamino)-pyrimidin-2-ylamino]-benzonitrile] | < 0.5
9 | Cc1cnc(Nc2ccc(C(=O)N(C)C)cc2)nc1Nc1ccc2oc(=O)[nH]c2c1 [Compound I-132, N,N-Dimethyl-4-[5-methyl-4-(2-oxo-2,3-dihydro-benzooxazol-5-ylamino)-pyrimidin-2-ylamino]-benzamide] | < 0.5
10 | CNC(=O)c1ccc(Nc2ncc(C)c(Nc3ccc4oc(=O)[nH]c4c3)n2)cc1 [Compound I-133, N-Methyl-4-[5-methyl-4-(2-oxo-2,3-dihydro-benzooxazol-5-ylamino)-pyrimidin-2-ylamino]-benzamide] | < 0.5
11 | Cc1cnc(Nc2ccc(C(=O)NC3CC3)cc2)nc1Nc1ccc2oc(=O)[nH]c2c1 [Compound I-134, N-Cyclopropyl-4-[5-methyl-4-(2-oxo-2,3-dihydro-benzooxazol-5-ylamino)-pyrimidin-2-ylamino]-benzamide formate salt] | < 0.5
12 | Cc1cnc(Nc2ccc(C(=O)Nc3ccccc3)cc2)nc1Nc1ccc2oc(=O)[nH]c2c1 [Compound I-135, 4-[5-Methyl-4-(2-oxo-2,3-dihydro-benzooxazol-5-ylamino)-pyrimidin-2-ylamino]-N-phenyl-benzamide] | < 0.5
13 | Cc1cnc(Nc2ccc(C(N)=O)c(N3CCCC3)c2)nc1Nc1ccc2oc(=O)[nH]c2c1 [Compound I-136, 4-[5-Methyl-4-(2-oxo-2,3-dihydro-benzooxazol-5-ylamino)-pyrimidin-2-ylamino]-2-pyrrolidin-1-yl-benzamide] | < 0.5
14 | CCNC(=O)c1ccc(Nc2ncc(C)c(Nc3ccc4oc(=O)[nH]c4c3)n2)cc1 [Compound I-137, N-Ethyl-4-[5-methyl-4-(2-oxo-2,3-dihydro-benzooxazol-5-ylamino)-pyrimidin-2-ylamino]-benzamide] | < 0.5
